From publication PMC9495262, “In Vitro Antiparasitic Activities of Monovalent Ionophore Compounds for Human and Canine Leishmaniases” (Animals : an Open Access Journal from MDPI, 2022)
Read-outs that look alike come from different tables or passages of the source.

Legend:
[1] = test system: L. infantum promastigotes; test: Leishmania promastigote viability assay (MTT), L. infantum; type: cell-based; conditions: mean ± SD of three experiments in duplicate
Procedure: (§1) Promastigote stages of L. infantum strain (MHOM/TN/80/IPT1) (WHO international reference strain, kindly provided by Dr. M. Gramiccia and Dr. T. Di Muccio, ISS, Roma, Italy), and clinical isolates of L. tropica (MHOM/SY/2012/ISS3130) and L. braziliensis (MHOM/PE/2006/ISS2848) (kindly provided by Dr. R. Grande, Sacco Hospital, Milan, Italy), were cultured in Schneider’s Drosophila medium (Lonza) supplemented with 2 mM L-glutamine and 10% heat-inactivated FBS (HyClone) at 24 °C.
(§2) To estimate the 50% inhibitory concentration (IC50) of compounds on both cells and Leishmania promastigotes, the MTT (3-[4,5-dimethylthiazol-2-yl]-2,5-diphenyltetrazolium bromide) assay was used with minor modifications. Briefly, monensin and nigericin were dissolved in ethanol (10 mg/mL), and salinomycin and amphotericin B in DMSO (10 mg/mL). All compounds were then diluted with medium to achieve the required concentrations (final DMSO or ethanol concentration <1%, non-toxic to the parasite or cells). The complete medium used for the antileishmanial activity assay was RPMI 1640 (EuroClone) supplemented with 10% heat-inactivated FBS (EuroClone), 20 mM HEPES, and 2 mM L -glutamine. Drugs were added to 96-well round-bottom microplates and seven serial dilutions were performed. Amphotericin B was used as the reference anti-Leishmania drug. Subsequently, 100 μL of the parasite suspension (5 × 10^6 parasites/mL) was dispensed into the plates. After 72h of incubation at 24 °C, 20 μL of MTT solution (5 mg/mL in PBS) was added into each well. After 3 h in the dark, the plates were centrifuged, the supernatants discarded, and the formazan crystals in the pellet dissolved in 100 μL of lysing buffer (20% w/v of a solution of SDS -Merck-, and 40% of N,N-dimethylformamide -Merck- in H2O).
(§3) For cell cytotoxicity experiments, 100 μL (5 × 10 ^5 cells/mL) of THP-1 cells were plated in 96-well flat-bottom microplates and treated with 0.1 µM phorbol myristate acetate (PMA, Merck, Kenilworth, NJ, USA) for 72 h to achieve differentiation into macrophages. Cells were then treated with different drug concentrations (60–0.4 µM). After 72 h, 20 μL of the MTT solution was added into each well. After 3 h in the dark, the supernatants were discarded and the formazan crystals dissolved in 100 μL of the same lysing buffer described above. The absorbance was then measured spectrophotometrically at 550 nm (reference wavelength 650 nm). The results are expressed as IC50, which is the dose of compound necessary to inhibit parasite and cell growth by 50%. The IC50 values were extrapolated from nonlinear regression analysis of the concentration–response curve using the software Gen5 1.10 provided with the Synergy 4 (BioTek, Winooski, VT, USA) reader. Data are the mean ± standard deviation of individual experiments performed in duplicate.

[2] = test system: L. braziliensis promastigotes; test: Leishmania promastigote viability assay (MTT), L. braziliensis; type: cell-based; conditions: mean ± SD of three experiments in duplicate
Procedure: as §1, §2, §3

L. tropica promastigotes = test: Leishmania promastigote viability assay (MTT), L. tropica; type: cell-based; conditions: mean ± SD of three experiments in duplicate
Procedure: as §1, §2, §3

[3] = Cytotoxicity (MTT) on PMA-differentiated THP-1 macrophages; type: cell-based; conditions: human
Procedure: THP-1 cells (human acute monocytic leukemia cell line) were maintained in Roswell Park Memorial Institute (RPMI) 1640 medium supplemented with 10% fetal bovine serum (FBS, EuroClone), 50 µM 2-mercaptoethanol, 20 mM HEPES, and 2 mM L-glutamine, at 37 °C in 5% CO2.
as §3

in vitro = type: cell-based; conditions: human
Procedure: as §3
Non-infected human macrophages (PMA-differentiated THP-1, dTHP-1) and human dermal fibroblasts (HDF) were incubated in the presence of different concentrations of ionophores to determine the nontoxic concentration for mammalian cells.

[4] = test system: L. infantum intracellular amastigotes; test: Intracellular amastigote susceptibility assay in human dTHP-1 (Giemsa counting); type: cell-based, Leishmania infantum; conditions: for IC50: Leishmania infantum, read-out: Amastigotes IC50; for SI (Selectivity index = IC50 dTHP-1/IC50 amastigotes): ratio of cytotoxicity on dTHP-1 to activity on L. infantum amastigotes
Procedure: For Leishmania spp. infections, 100 μL of THP-1 cells (5 × 10^5 cells/mL) or canine macrophages (2 × 10^6 cells/mL) were plated in 16-chamber Lab-Tek culture slides (Nunc) and further treated with 0.1 µM of PMA for 72 h to achieve differentiation into macrophages. Cells were then washed with PBS and infected with stationary phase L. infantum promastigotes at a macrophage:promastigote ratio of 1:10. After 24 h, cell monolayers were extensively washed with PBS to remove non-internalized promastigotes and observed under an inverted light microscope to evaluate both the cellular size and the cellular morphology. Infected cells were then incubated in the presence of test compounds for 72 h. Infected and/or treated cells were then fixed with 100% methanol and stained with Giemsa at room temperature. The percentage of infected macrophages in treated and non-treated wells was determined by counting 200–300 macrophages/well under a light microscope. About 10 random microscopic fields/well were observed. The number of infected macrophages in the untreated control samples was considered 100% for calculating the percentage of infection in drug treated samples. IC50 values were then calculated. Data are the mean ± standard deviation of individual experiments performed in triplicate.
Next, human macrophages (dTHP-1) were infected with stationary-phase promastigotes of L. infantum at a cell:promastigote ratio of 1:10 for 24 h, and allowed to differentiate into intracellular parasite forms. After the removal of free promastigotes, the infected macrophages were incubated for 72 h in the presence of the ionophores at different concentrations. A significant reduction in the number of infected macrophages was observed after treatment with all the compounds tested. The inhibition was dose-dependent with IC50s between 1 and 2 µM (Table 3).

[5] = test system: all Leishmania spp. promastigotes; test: Promastigote viability assay, all Leishmania species tested (summary statements); type: cell-based; conditions: read-out: IC50 against all Leishmania spp. promastigotes tested
Procedure: as §1
as §2, with “After 3 h in the dark, the plates were centrifuged, the supernatants discarded, and the formazan crystals in the pellet dissolved in 100 μL of lysing buffer (20% w/v of a solution of SDS -Merck-, and 40% of N,N-dimethylformamide -Merck- in H2O).” left out
For cell cytotoxicity experiments, 100 μL (5 × 10 ^5 cells/mL) of THP-1 cells were plated in 96-well flat-bottom microplates and treated with 0.1 µM phorbol myristate acetate (PMA, Merck, Kenilworth, NJ, USA) for 72 h to achieve differentiation into macrophages. […] The absorbance was then measured spectrophotometrically at 550 nm (reference wavelength 650 nm). […] The IC50 values were extrapolated from nonlinear regression analysis of the concentration–response curve using the software Gen5 1.10 provided with the Synergy 4 (BioTek, Winooski, VT, USA) reader. […]

[6] = test system: promastigotes of L. donovani; set-up: method as in PMID 12864731; conditions: previous work; read-out: IC50 against promastigotes of L. donovani; cited from earlier work
[7] = test system: L. donovani intracellular amastigotes; set-up: method as in PMID 21358812; conditions: read-out: IC50 against intracellular amastigotes, ex vivo splenic explant model of L. donovani infection; cited from earlier work
[8] = Leishmania infantum, MTT assay after 72 h of treatment, read-out: IC50 against L. infantum promastigotes
[9] = Leishmania braziliensis, MTT assay after 72 h of treatment, read-out: IC50 against L. braziliensis promastigotes
[10] = Leishmania tropica, MTT assay after 72 h of treatment, read-out: IC50 against L. tropica promastigotes
[11] = L. infantum-infected dTHP-1 treated for 72 h, Giemsa, percentage of infected cells
[12] = L. infantum, L. tropica and L. braziliensis promastigotes, summary statement
[13] = non-infected PMA-differentiated THP-1 macrophages (dTHP-1), non-infected PMA-differentiated THP-1, MTT assay after 72 h of treatment, read-out: CC50 dTHP-1

SMILES | IC50 [1, 8] [µM] | IC50 [2, 9] [µM] | IC50 (L. tropica promastigotes; [10]) [µM] | CC50 at 72 h [3] [µM] | CC50 at 72 h (in vitro) [µM] | IC50 [4, 11] [µM] | SI (Selectivity index = IC50 dTHP-1/IC50 amastigotes) [4] | IC50 [5, 12] [µM] | CC50 at 72 h [3, 13] [µM] | IC50 ([1]; Leishmania infantum, 72 h, read-out: IC50 against L. infantum promastigotes, MTT assay after 72 h of treatment) [µM] | IC50 ([1]; read-out: IC50 against L. infantum promastigotes, MTT assay after 72 h of treatment) [µM] | IC50 ([2]; Leishmania braziliensis, 72 h, read-out: IC50 against L. braziliensis promastigotes, MTT assay after 72 h of treatment) [µM] | IC50 ([2]; read-out: IC50 against L. braziliensis promastigotes, MTT assay after 72 h of treatment) [µM] | IC50 (L. tropica promastigotes; Leishmania tropica, 72 h, read-out: IC50 against L. tropica promastigotes, MTT assay after 72 h of treatment) [µM] | IC50 (L. tropica promastigotes; read-out: IC50 against L. tropica promastigotes, MTT assay after 72 h of treatment) [µM] | IC50 ([4]; 72 h) [µM] | IC50 [5] [µM] | IC50 [6] [µM] | IC50 [7] [µM]
CO[C@@H]1C[C@@H](C[C@H]2CC[C@H](C)[C@H]([C@@H](C)C(=O)O)O2)O[C@]2(O[C@](C)([C@H]3CC[C@@](C)([C@@H]4O[C@@H]([C@H]5O[C@@](O)(CO)[C@H](C)C[C@@H]5C)C[C@@H]4C)O3)C[C@H]2C)[C@@H]1C [Nigericin, nigericin] | 0.37 ± 0.04 | 0.78 ± 0.08 | 0.23 ± 0.05 | > 60 | > 60 | 1.79 ± 0.83 | >33.5 | < 1 | – | – | – | – | – | – | – | – | – | – | –
C[C@@H]1[C@H](O)[C@@H](C)/C=C/C=C/C=C/C=C/C=C/C=C/C=C/[C@H](O[C@@H]2O[C@H](C)[C@@H](O)[C@H](N)[C@@H]2O)C[C@@H]2O[C@](O)(C[C@@H](O)C[C@@H](O)[C@H](O)CC[C@@H](O)C[C@@H](O)CC(=O)O[C@H]1C)C[C@H](O)[C@H]2C(=O)O [Amphotericin B] | 0.12 ± 0.02 | 0.08 ± 0.02 | 0.1 ± 0.02 | – | – | 0.18 ± 0.03 | >111.1 | – | > 20 | – | – | – | – | – | – | – | – | – | –
CC[C@@H](C(=O)[C@@H](C)[C@@H](O)[C@H](C)[C@@H]1O[C@@H]([C@@H](CC)C(=O)O)CC[C@@H]1C)[C@H]1O[C@]2(C=C[C@@H](O)[C@]3(CC[C@@](C)([C@H]4CC[C@](O)(CC)[C@H](C)O4)O3)O2)[C@H](C)C[C@@H]1C [Salinomycin, salinomycin] | – | – | – | – | > 60 | – | 16.6 | – | 32.1 ± 5.3 | ~8 | 7.98 ± 0.64 | ~5 | 5.08 ± 1.74 | ~5 | 4.53 ± 0.6 | 1.93 ± 0.1 | > 4 | ~1.7 | –
CC[C@@]1([C@@H]2O[C@@H]([C@H]3O[C@@](O)(CO)[C@H](C)C[C@@H]3C)C[C@@H]2C)CC[C@H]([C@]2(C)CC[C@]3(C[C@H](O)[C@@H](C)[C@@H]([C@@H](C)[C@@H](OC)[C@H](C)C(=O)O)O3)O2)O1 [Monensin, monensin] | 0.63 ± 0.11 | 0.27 ± 0.13 | 0.35 ± 0.17 | > 60 | > 60 | 1.67 ± 0.43 | >35.9 | < 1 | – | – | – | – | – | – | – | – | – | – | 0.85
